Measured values reported in patent publication US20260223850A1, “SUBSTITUTED PYRROLIDONE COMPOUND, PREPARATION METHOD THEREFOR, COMPOSITION AND APPLICATION THEREOF” (QINGDAO KINGAGROOT CHEMICAL COMPOUND CO., LTD., priority 2023, published 2026).

Legend:
Format in all cases: in vivo
[1] = system: Leptochloa chinensis; test: Seedling stage sealing experiment for water-seeding; conditions: 120 g a.i./ha, 15 days, fresh weight control rate
Summary of the method: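 Seeds sown in soil-filled bowls kept moist in water-filled boxes; compound in acetone diluted with water and spray-applied at 120, 60, 30 and 15 g a.i./ha, triplicate. After 15 days in greenhouse, fresh-weight growth control scored on a 0–9 scale (9 = dead, 0 = no effect), averaged.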

[2] = system: Huaidao (rice cultivar); test: Seedling stage sealing experiment for water-seeding (crop safety); conditions: 120 g a.i./ha, 15 days, fresh weight control rate; for Huaidao (rice cultivar) plant damage level: seedling stage sealing; for Huaidao (rice cultivar) plant damage level (growth control rate): spray, seedling stage sealing for water-seeding
Summary of the method: (§1)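 Pre-emergence spray on soil-covered seeds in moist bowls, rates 120/60/30/15 g a.i./ha, n = 3. Fresh-weight control graded 0–9 at day 15.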

[3] = system: Echinochloa crusgalli; test: Seedling stage sealing experiment for water-seeding; conditions: 120 g a.i./ha, 15 days, fresh weight control rate
[4] = system: Echinochloa phyllopogon; test: as above; conditions: 120 g a.i./ha, 15 days, fresh weight control rate
Summary of the method: as §1

[5] = system: Digitaria sanguinalis; test: as above; conditions: 120 g a.i./ha, 15 days, fresh weight control rate
Summary of the method: as §1

[6] = spray, seedling stage sealing for water-seeding

Row | Compound | Leptochloa chinensis activity level (growth control rate) [1] | Huaidao (rice cultivar) plant damage level [2] | Echinochloa crusgalli activity level (growth control rate) ([3]; seedling stage sealing) | Echinochloa phyllopogon activity level (growth control rate) ([4]; seedling stage sealing) | Huaidao (rice cultivar) plant damage level (growth control rate) [2] | Echinochloa crusgalli activity level (growth control rate) [3, 6] | Echinochloa phyllopogon activity level (growth control rate) [4, 6] | Digitaria sanguinalis activity level (growth control rate) [5, 6] | Digitaria sanguinalis activity level (growth control rate) ([5]; seedling stage sealing)
1 | Cc1cccc([C@H]2CN(C)C(=O)[C@@H]2C(=O)Nc2cnn(C)c2Cl)c1 [17′] | 9 | 0 | 9 | 6 (Level 6: growth control rate greater than or equal to 70% and less than 80%) |  |  |  |  | 
2 | CCn1ncc(NC(=O)[C@H]2C(=O)N(C)C[C@@H]2c2cccc(C)c2)c1F [523′] |  |  |  |  | 0 | 9 | 6 (Level 6: growth control rate greater than or equal to 70% and less than 80%) | 9 | 
3 | Cc1cccc([C@H]2CN(C)C(=O)[C@@H]2C(=O)Nc2cnn(C)c2C(F)F)c1 [524′] |  |  |  |  | 2 (Level 2: growth control rate greater than or equal to 10% and less than 20%) | 9 | 9 | 9 | 
4 | CCn1ncc(NC(=O)[C@H]2C(=O)N(C)C[C@@H]2c2cccc(C)c2)c1C(F)(F)F [525′] |  |  |  |  | 2 (Level 2: growth control rate greater than or equal to 10% and less than 20%) | 9 | 9 | 9 | 
5 | CN1C[C@H](c2cccc(C(F)(F)F)c2)[C@@H](C(=O)Nc2cnn(C)c2C(F)(F)F)C1=O [538′] |  |  |  |  |  | 9 | 9 | 9 | 
6 | CN1C[C@H](c2cccc(C(F)(F)F)c2)[C@@H](C(=O)Nc2cnn(C)c2[S+](C)[O-])C1=O (some centres unmarked) [539′] |  |  |  |  | 0 | 9 |  | 6 (Level 6: growth control rate greater than or equal to 70% and less than 80%) | 
7 | CCc1c(NC(=O)[C@H]2C(=O)N(C)C[C@@H]2c2cc(C)cc(C)c2)cnn1C(F)F [544′] |  |  |  |  |  | 9 | 9 | 9 | 
8 | COCn1ncc(NC(=O)[C@H]2C(=O)N(C)C[C@@H]2c2cc(C)cc(C)c2)c1C1CC1 [549′] |  |  |  |  |  | 9 | 9 | 9 | 
9 | Cc1cc(C)cc([C@H]2CN(C)C(=O)[C@@H]2C(=O)Nc2cnn(C)c2[S+](C)[O-])c1 (some centres unmarked) [552′] |  |  |  |  | 0 | 9 |  | 9 | 
10 | COCc1c(NC(=O)[C@H]2C(=O)N(C)C[C@@H]2c2cc(C)cc(C)c2)cnn1C [553′] |  |  |  |  | 2 (Level 2: growth control rate greater than or equal to 10% and less than 20%) | 9 |  | 9 | 
11 | CN1C[C@H](c2cc(Br)cc(C(F)(F)F)c2)[C@@H](C(=O)Nc2cnn(C(F)F)c2Cl)C1=O [557′] |  |  |  |  |  | 9 | 6 (Level 6: growth control rate greater than or equal to 70% and less than 80%) | 9 | 
12 | CN1CC(c2cccc(C(F)(F)F)c2)C(C(=O)Nc2cnn(C)c2Cl)C1=O (centres unmarked) [Compound 1] |  |  | 9 | 9 |  |  |  |  | 9
13 | CN1CC(c2cccc(F)c2)C(C(=O)Nc2cnn(C)c2Cl)C1=O (centres unmarked) [Compound 15] |  |  | 9 | 6 (Level 6: growth control rate greater than or equal to 70% and less than 80%) |  |  |  |  | 9
14 | C=CCOc1cccc(C2CN(C)C(=O)C2C(=O)Nc2cnn(C)c2Cl)c1 (centres unmarked) [Compound 30] |  |  | 9 | 9 |  |  |  |  | 9
15 | CN1CC(c2ccc(F)c(C(F)(F)F)c2)C(C(=O)Nc2cnn(C)c2Cl)C1=O (centres unmarked) [Compound 54] | 9 | 0 | 9 | 9 |  |  |  |  | 
16 | CN1CC(c2ccc(F)c(F)c2)C(C(=O)Nc2cnn(C)c2Cl)C1=O (centres unmarked) [Compound 116] |  |  | 7 (Level 7: growth control rate greater than or equal to 80% and less than 90%) | 6 (Level 6: growth control rate greater than or equal to 70% and less than 80%) |  |  |  |  | 9
17 | CN1CC(c2ccccc2)C(C(=O)Nc2cnn(C)c2Cl)C1=O (centres unmarked) [Compound 121] | 6 (Level 6: growth control rate greater than or equal to 70% and less than 80%) | 0 | 9 | 9 |  |  |  |  | 
18 | CN1CC(c2cccc(C(F)(F)F)c2)C(C(=O)Nc2cnn(C(F)F)c2)C1=O (centres unmarked) [Compound 159] |  |  | 7 (Level 7: growth control rate greater than or equal to 80% and less than 90%) | 6 (Level 6: growth control rate greater than or equal to 70% and less than 80%) |  |  |  |  | 9
19 | CN1CC(c2ccc(C(F)(F)F)cc2)C(C(=O)Nc2cnn(C)c2Cl)C1=O (centres unmarked) [Compound 249] |  |  | 8 (Level 8: growth control rate greater than or equal to 90% and less than 100%) | 8 (Level 8: growth control rate greater than or equal to 90% and less than 100%) |  |  |  |  | 9
20 | COc1cc(C2CN(C)C(=O)C2C(=O)Nc2cnn(C)c2Cl)ccc1C (centres unmarked) [Compound 321] | 6 (Level 6: growth control rate greater than or equal to 70% and less than 80%) |  | 5 (Level 5: growth control rate greater than or equal to 50% and less than 70%) | 5 (Level 5: growth control rate greater than or equal to 50% and less than 70%) |  |  |  |  | 
21 | CN1CC(c2cc(F)c(F)c(F)c2)C(C(=O)Nc2cnn(C)c2F)C1=O (centres unmarked) [Compound 323] | 6 (Level 6: growth control rate greater than or equal to 70% and less than 80%) |  | 5 (Level 5: growth control rate greater than or equal to 50% and less than 70%) | 5 (Level 5: growth control rate greater than or equal to 50% and less than 70%) |  |  |  |  | 
22 | CN1CC(c2cc(F)c(F)c(F)c2)C(C(=O)Nc2c(O)nn(C)c2F)C1=O (centres unmarked) [Compound 324] | 9 |  | 7 (Level 7: growth control rate greater than or equal to 80% and less than 90%) | 7 (Level 7: growth control rate greater than or equal to 80% and less than 90%) |  |  |  |  | 
23 | COc1c(Cl)ccc(C2CN(C)C(=O)C2C(=O)Nc2c(O)nn(C)c2F)c1F (centres unmarked) [Compound 331] | 9 |  | 9 | 7 (Level 7: growth control rate greater than or equal to 80% and less than 90%) |  |  |  |  | 
24 | CCn1cc(NC(=O)C2C(=O)N(C)CC2c2cccc(C(F)(F)F)c2)cn1 (centres unmarked) [Compound 456] |  |  |  |  | 0 | 7 (Level 7: growth control rate greater than or equal to 80% and less than 90%) |  | 9 | 
25 | CN1CC(c2cccc(C(F)(F)F)c2)C(C(=O)Nc2cn(C)nc2C(F)F)C1=O (centres unmarked) [Compound 457] |  |  |  |  | 0 |  |  | 9 | 
26 | CN1CC(c2ccc(C(F)(F)F)cc2)C(C(=O)Nc2c[nH]nc2Cl)C1=O (centres unmarked) [Control compound A, reference compound] |  |  |  |  |  | 0 | 0 | 0 | 
